Experimental data taken from patent publication US5194586A, “Anti-ATLA antibody binding peptides” (Kuraray Co., Ltd., priority 1989, dated 1993).
Values joined by “and” are separate entries in the source; they are usually repeats but may differ in a detail not shown here. Equal values may be shown once.

Test system: anti-ATLA antibody
Experiment: ELISA of Example 24: single peptides and 1:1 mixture, dried stored cups
Format: binding, human
Conditions: for OD492: listed as Ex. 9
Procedure: Each serum specimen was assayed for the presence of the anti-ATLA antibody by the following ELISA in which an absorbance was measured.
The peptide prepared in Example 1 or the peptide prepared in Reference Example 9 were each dissolved in 0.01M carbonate buffer (pH 9.5) to prepare a solution containing each peptide. In addition, a solution containing both peptides was prepared by mixing the above two solutions at a concentration ratio of 1:1 (the former:the latter). Each 100 μl of the resulting peptide solutions was added to a cup for ELISA made of polystyrene (the same as mentioned above) and the mixture was allowed to stand at 4° C. overnight so that the peptide is coated on the cup. After removing the peptide solution in these cups, to each cup was added PBS (200 μl ) containing 20% by volume of normal goat serum and the mixture was allowed to stand at room temperature for 3 hours to block non-specific protein binding sites. After removing the blocking solution in the cups, the cups were dried and stored at 4° C.
Using PBS containing 10% by volume of normal goat serum and 0.05% by volume of Tween 20 as a diluent, the diluent and each serum specimen (15 specimens of the ATLV-carrier serum and 15 specimens of the normal human serum) was mixed at a ratio of 20:1 (diluent:specimen; v/v) and each 100 μl of the resulting diluted serums was added to above each assay cup. After incubation at 37° C. for 1 hour, the cups were washed with PBS containing 0.05% by volume of Tween 20 (×3) and then with PBS (×1).
To each resulting assay cup was added PBS containing horseradish peroxidase conjugated goat anti-human IgG antibody (diluted at an optimal concentration with PBS containing 10% by volume of normal goat serum and 0.2% by volume of Tween 20; 100 μl ). After incubation at 37° C. for 30 minutes, these cups were washed with PBS containing 0.05% by volume of Tween 20 (×3) and then with PBS (×1). […] After the mixtures were allowed to stand at room temperature for 15 minutes, to each mixture was added 1N sulfuric acid (100 μl) to stop the reaction and an absorbance at 492 nm (OD492) of each reaction solution was measured.
Cutoff value was determined using the OD492 values of the fifteen normal human serums and used for determination as to whether the specimens are positive or negative for the anti-ATLA antibody. The cutoff value was calculated by the equation: cutoff value = ((mean value of OD492 values of the normal human serum) +2SD). When the presence of the anti-ATLA antibody in each serum specimen was assayed using this cutoff value, all ATLV-carrier serums were determined to be positive and all normal human serums were determined to be negative.

With “Example 9: peptide (I), X is -Lys-Lys-Lys-, A is the env peptide fragment (A-3); SEQ ID NO: 14 (KKKFLNTEPSQLPPTAPPLLPHSNLDHI)” the OD492 (ATLV-carrier serum, individual specimens No. 1-15, diluent:specimen 20:1) was 0.873 and 0.973 and 1.405 and 0.099 and 1.623 and 1.437 and 0.137 and 0.088 and 0.111 and 1.029 and 1.071 and 1.156 and 1.061 and 0.549 and 1.478, the Cutoff value (mean OD492 of the normal human serum + 2SD) was 0.158 and the “Mean OD492” value (mean of the fifteen normal human serums) was 0.096. The OD492 (normal human serum, individual specimens No. 1-15) was 0.078 and 0.062 and 0.040 and 0.089 and 0.133 and 0.103 and 0.099 and 0.083 and 0.151 and 0.065 and 0.093 and 0.097 and 0.100 and 0.094 and 0.154.
